No end group written: not given here.
Key:
Staphylococcus aureus = test: Testing swatches for binding and antimicrobial activity (strain not distinguished); assay type: cell-based; conditions: for colonies counted (cells recovered from swatch), S. aureus: Cj peptide attached to swatches
Procedure: (§1) Peptides were synthesized at New England peptides with the linker sequence of GGSGGS or GGSGG on the N terminal (Table 1). Textile swatches of cotton or cotton-nylon blends were cut to 1 cm circles and the surface hydroxyls were converted to carboxyl by submerging the swatches 1 hour with agitation at 300 rpm in 25 mL of citric acid buffer (7% citric acid, 5% Sodium Hypophosphate monohydrate). (Synthetic material such as nylon and polyester require a pretreatment with sodium hydroxide before the citric acid buffer is added) To cure the reaction, the swatches were heated in a microwave for 2 minutes. After curing, swatches were washed the in 25 mL of deionized water for 5 min. The swatches were activated by submerging in 30 mL of EDC solution (0.6372 g in 30 mL 200 mM monobasic sodium phosphate buffer pH) and incubating for 45 minutes with 300 rpm agitation. After incubation, swatches were rinsed in 25 mL 20 mM sodium phosphate buffer pH 7.2 for 5 minutes. During the wash, 5 ml peptide samples were prepare from a 2 mg/ml stock of peptide in 20 mM sodium phosphate solution at concentrations of […] 1.25 mg/g peptide. […] Each solution was added to one well of a six well microtiter plate. […] Swatches were washed in 20 mM phosphate buffer for 5 min, then wash for 5 min in water twice and allowed to air dry.
(§2) Inoculation took place using an 8 ml overnight cultures for each target microorganisms in appropriate media. For Staphylococcus aureus, Staphylococcus epidermidis and Pseudomonas aeruginosa cultures were grown on Nutrient broth. For Corynebacterium jeikieson the media was Brain Heart Infusion supplemented with 0.1% Tween 80 and for Micrococcus luteus the media was Brain Heart Infusion media. The OD for each culture was taken and diluted to an OD of 1 using appropriate growth media. For each culture a 1 mL aliquot was taken and transfer to a clean 2 mL eppendorf tube. The tubes were placed into a micro centrifuge and spun at 10,000 G until a pellet has formed. The media was aspirated without disturbing the pellet and the pellet was re-suspend in 1 mL of 0.125× Nutrient Broth with 0.15% Triton X-100. This was repeated to wash pellets. The pellet was re-suspend in 1 ml of 0.125× Nutrient Broth with 0.15% Triton X-100 and the above centrifugation was performed again. After last wash, the pellet was re-suspended in 1 ml of 0.125× Nutrient Broth with 0.15% Triton X-100 then added to 8 mL of 0.125× Nutrient Broth with 0.15% Triton X-100. […] The inoculum was enumerated by adding 500 ul into 4.5 ml of PBS and serial diluting 7 more times. Counts were taken by spread plating only 10^−6, 10^−7 and 10^−8.
(§3) Swatches prepared previously were inoculated with 25 ul of the inoculum (scoured samples will be used as a negative control). The inoculated swatches were incubated for 24 hr at 37° C. in a sealed tube. To analyze binding, the swatches were placed into 2.5 ml modified DE broth and vortex for 5 min. The modified DE broth was serial diluted 10^−3 by adding 500 ul to 4.5 ml phosphate buffer. The dilution was spread plated onto the appropriate growth media (mannitol salts for Staphylococcus aureus, nutrient agar for Staphylococcus epidermidis, Cetrimide agar for Pseudomonas aeruginosa, Brain heart infusion for Micrococcus luteus and Brain Heart infusion with 0.1% Tween 80 for Corynebacterium jeikeium) and incubate overnight.
These concentration were chosen based upon result from previously described experiments. The treated fabric was evaluated against two different strains of Staphylococcus aureus (Table 5). […] A follow up experiment provide additional evidence for this possibility.
(§4) An experiment was run using the same two Staphylococcus aureus strains 27217 and 25923 with the addition of Staphylococcus epidermidis. […]

S. epidermidis 12228 = test: Testing swatches for binding and antimicrobial activity; assay type: cell-based, Staphylococcus epidermidis; conditions: for colonies counted (cells recovered from swatch), S. epidermidis: Cj peptide attached to swatches
Procedure: as §1, §2, §3, §4
(§5) The six potential peptides were attached to swatches and exposed to Corynebacterium jeikeium, Micrococcus luteus, Staphylococcus epidermidis, Staphylococcus aureus and Pseudomonas aeruginosa.

Pseudomonas aeruginosa = test: as above; assay type: cell-based; conditions: for colonies counted (cells recovered from swatch), P. aeruginosa: Cj peptide attached to swatches
Procedure: as §1, §2, §3
Pseudomonas aeruginosa was examined using concentrations based upon the textile MIC.
as §5

Corynebacterium jeikeium = test: as above; assay type: cell-based; conditions: peptide attached to swatches
Procedure: as §1, §2, §3, §5

Micrococcus luteus = test: as above; assay type: cell-based; conditions: peptide attached to swatches
Procedure: as §1, §2, §3, §5

S aureus 27217 = test: as above; assay type: cell-based, Staphylococcus aureus; conditions: PHMB 0%, 24 hr 37° C.
Procedure: as §1
as §2, with “Counts were taken by spread plating only 10^−6, 10^−7 and 10^−8.” left out
(§6) These concentration were chosen based upon result from previously described experiments. The treated fabric was evaluated against two different strains of Staphylococcus aureus (Table 5). […]

S. aureus 25923 = test: as above; assay type: cell-based, Staphylococcus aureus; conditions: PHMB 0%, 24 hr 37° C.
Procedure: as §1
as §2, with “Counts were taken by spread plating only 10^−6, 10^−7 and 10^−8.” left out
as §6

Sequence	colonies counted (cells recovered from swatch), S. aureus (Staphylococcus aureus)	colonies counted (cells recovered from swatch), S. epidermidis (S. epidermidis 12228)	colonies counted (cells recovered from swatch), P. aeruginosa (Pseudomonas aeruginosa)	colonies counted (cells recovered from swatch), C. Jeikeium (Corynebacterium jeikeium)	colonies counted (cells recovered from swatch), M luteus (Micrococcus luteus)	further results
GGSGGNGVVLTL (MICROCOCCUS LUTEUS and CORYNEBACTERIUM JEIKIEUM) [Cj 1]	6055000	65500	40000	175	0	
GGSGGNRWWQGVVP (MICROCOCCUS LUTEUS and CORYNEBACTERIUM JEIKIEUM) [Cj3]	7040000	121500	27000	300	0	
GGSGGTWTKKLK (MICROCOCCUS LUTEUS and CORYNEBACTERIUM JEIKIEUM) [Cj2]	7680000	294000	TNTC	0	0	
GGSGGGWWNSWGKCV (MICROCOCCUS LUTEUS and CORYNEBACTERIUM JEIKIEUM) [Cj 5]	4195000	337000	TNTC	0	0	
GGSGGSYSTCDFIM (STAPHYLOCOCCUS AUREUS) [Peptide]						colonies counted (cells recovered from swatch) (S aureus 27217; peptide 1.75 mg/g): 475000; colonies counted (cells recovered from swatch) (S aureus 27217; peptide 2.5 mg/ml): 0; colonies counted (cells recovered from swatch) (S. aureus 25923; peptide 1.75 mg/g): 4765000; colonies counted (cells recovered from swatch) (S. aureus 25923; peptide 2.5 mg/ml): 0; lowest peptide concentration that will bind the cells (Staphylococcus aureus; both strains): 2.5 mg/mL; binding of cells (in words) (Staphylococcus aureus; both strains, peptide 2.5 mg/ml regardless of the PHMB concentration): completely bound all of the cells; binding of cells (in words) (Staphylococcus aureus; lower peptide concentrations (below 2.5 mg/ml)): may have bound some of the cells, but not all of them; cells recovered (in words) (Staphylococcus aureus; strains 27217 and 25923, peptide present (2.5 mg/ml), PHMB 0 or 0.0008%): no Staphylococcus aureus cell were recovered; binding by the peptide (in words) (S. epidermidis 12228; S. aureus-binding peptide 2.5 mg/ml): does not appear to be any binding; colonies counted (cells recovered from swatch) (S. epidermidis 12228; S. aureus-binding peptide 2.5 mg/ml, PHMB 0%): 693000
GGSGGSWQHVFT (MICROCOCCUS LUTEUS and CORYNEBACTERIUM JEIKIEUM) [Cj 4]	5315000	145000	28000	245	0	
GGSGGIGGVSGGLTG (MICROCOCCUS LUTEUS and CORYNEBACTERIUM JEIKIEUM) [Cj 6]	5980000	122000	175000	0	0	
GGSGGSKKHRKHRKHRKH (also: bound to textile) [pep]						CFU (Pseudomonas aeruginosa; 2.5 mg/ml pep, 0% PHMB): 0 CFU

— US11457625B1, “Tuning a broad acting antimicrobial textile to act as a narrow spectrum antimicrobial textile” (priority 2018, dated 2022)
